Reference: PMC6522510 (Nature Communications, 2019)

Columns and labels:
[1] = tested on: MOLM-13; assay: cells; design: species or system AML cell lines (8); Secondary HTS, 10-point dose-response in triplicate, Cell Titer Glo viability, four-parameter fit EC50; settings: Homo sapiens, MOLM-13, 72 h, read-out: MOLM-13
[2] = tested on: MV4-11; assay: cells; design: species or system AML cell lines (8); Secondary HTS, 10-point dose-response in triplicate, Cell Titer Glo viability, four-parameter fit EC50; settings: Homo sapiens, MV4-11, 72 h, read-out: MV4-11
[3] = tested on: CMK; assay: cells; design: species or system AML cell lines (8); Secondary HTS, 10-point dose-response in triplicate, Cell Titer Glo viability, four-parameter fit EC50; settings: Homo sapiens, CMK, 72 h, read-out: CMK
[4] = tested on: MOLM-13; assay: Secondary dose-response HTS, Cell Titer Glo; format: cell-based, human; settings: Homo sapiens; secondary high-throughput screen; MOLM-13; read-out: average effective concentration, MOLM-13
[5] = tested on: MV4-11; assay: Secondary dose-response HTS, Cell Titer Glo; format: cell-based, human; settings: Homo sapiens; secondary high-throughput screen; MV4-11; read-out: average effective concentration, MV4-11
[6] = tested on: CMK; assay: Secondary dose-response HTS, Cell Titer Glo; format: cell-based, human; settings: Homo sapiens; secondary high-throughput screen; CMK; read-out: average effective concentration, CMK
[7] = tested on: ML2; assay: Secondary dose-response HTS, Cell Titer Glo; format: cell-based, human; settings: Homo sapiens; secondary high-throughput screen; ML-2; read-out: average effective concentration, ML-2
[8] = tested on: CHRF288-11; assay: cells; design: species or system AML cell lines (8); Secondary HTS, 10-point dose-response in triplicate, Cell Titer Glo viability, four-parameter fit EC50; settings: 72 h, read-out: CHRF288-11
[9] = tested on: CMS; assay: cells; design: species or system AML cell lines (8); Secondary HTS, 10-point dose-response in triplicate, Cell Titer Glo viability, four-parameter fit EC50; settings: 72 h, read-out: CMS
[10] = tested on: M07e; assay: cells; design: species or system AML cell lines (8); Secondary HTS, 10-point dose-response in triplicate, Cell Titer Glo viability, four-parameter fit EC50; settings: M-07e, 72 h, read-out: M07e
[11] = tested on: U937; assay: cells; design: species or system AML cell lines (8); Secondary HTS, 10-point dose-response in triplicate, Cell Titer Glo viability, four-parameter fit EC50; settings: Homo sapiens, U-937, 72 h, read-out: U937
[12] = tested on: CHRF288-11; assay: Secondary dose-response HTS, Cell Titer Glo; format: cell-based, human; settings: Homo sapiens, HTS; secondary high-throughput screen; CHRF288-11; read-out: average effective concentration, CHRF288-11
[13] = tested on: U937; assay: Secondary dose-response HTS, Cell Titer Glo; format: cell-based, human; settings: Homo sapiens, U-937; secondary high-throughput screen; U937; read-out: average effective concentration, U937

Compound	EC50 [1] [µM]	EC50 [2] [µM]	EC50 [4] [µM]	EC50 [5] [µM]	EC50 [11] [µM]	EC50 [13] [µM]	EC50 [3] [µM]	EC50 [6] [µM]	EC50 [7] [µM]	EC50 [8] [µM]	EC50 [9] [µM]	EC50 [10] [µM]	EC50 [12] [µM]
O=C(CCCCCN1C(=O)c2cccc3cccc(c23)C1=O)NO	> 10	> 10	–	–	–	–	–	–	–	–	–	–	–
C[C@H]1[C@H](OC(=O)CCC(=O)O)O[C@@H]2O[C@@]3(C)CC[C@H]4[C@H](C)CC[C@@H]1[C@@]24OO3 [Artesunate]	–	> 10	–	–	–	–	> 10	–	–	–	–	–	–
C[C@@]1(C(=O)Nc2ccc(F)nc2)CCCN1c1nc(Nc2cc(C3CC3)n[nH]2)c2cccn2n1 [BMS-754807]	–	–	8.4	10	> 10	–	–	2	2	> 10	> 10	> 10	–
CN1c2ccccc2C(=O)N2CCc3c([nH]c4ccccc34)[C@H]21 [EVODIAMINE]	> 10	> 10	–	–	–	–	–	–	–	> 10	–	–	–
COc1ccc(-c2ccc3ncc4c(c3c2)n(-c2ccc(N3CCNCC3)c(C(F)(F)F)c2)c(=O)n4C)cn1 [NVP-BGT226]	0.115	–	–	–	–	–	–	–	–	–	–	–	–
O=C(NOC[C@H](O)CO)c1ccc(F)c(F)c1Nc1ccc(I)cc1F [PD-0325901]	–	> 10	0.92	–	> 10	–	> 10	–	0.001	–	> 10	> 10	> 10
Nc1nc2[nH]cc(CCc3ccc(C(=O)N[C@@H](CCC(=O)O)C(=O)O)cc3)c2c(=O)[nH]1 [PEMETREXED]	–	–	0.048	0.035	> 10	–	> 10	–	0.066	–	> 10	> 10	0.1
O=C(O)C[C@H](O)C[C@H](O)/C=C/c1c(C2CC2)nc2ccccc2c1-c1ccc(F)cc1 [PITAVASTATIN]	–	–	5.3	7.6	–	8.5	> 10	–	5.1	–	> 10	> 10	2.2
O=C(NC[C@H](O)CO)c1ccncc1Nc1ccc(I)cc1F [Pimasertib]	> 10	–	–	6.3	> 10	–	–	> 10	0.001	> 10	> 10	> 10	–
CCC(C)(C)C(=O)O[C@H]1C[C@@H](C)C=C2C=C[C@H](C)[C@H](CC[C@@H]3C[C@@H](O)CC(=O)O3)[C@H]21 [SIMVASTATIN]	–	> 10	> 10	–	> 10	–	> 10	–	> 10	–	> 10	> 10	4.1
CNC(=O)c1cc(Oc2ccc(NC(=O)Nc3ccc(Cl)c(C(F)(F)F)c3)cc2)ccn1 [Sorafenib]	–	0.0073	–	–	–	–	> 10	–	–	> 10	> 10	> 10	–
COc1ccc(C[C@@H](C)[C@@H](C)Cc2ccc(OC)c(OC)c2)cc1OC [TERAMEPROCOL]	–	> 10	> 10	–	–	> 10	> 10	–	> 10	> 10	> 10	> 10	–
CC[C@@H]1C(=O)N(C)c2cnc(Nc3ccc(C(=O)N[C@H]4CC[C@H](N5CCN(CC6CC6)CC5)CC4)cc3OC)nc2N1C(C)C [Volasertib]	0.0077	–	–	–	–	–	–	–	–	–	–	> 10	–
O=c1ncccn1[C@@H]1O[C@H](CO)[C@@H](O)[C@H]1O [ZEBULARINE]	–	> 10	1.1	–	> 10	–	> 10	–	0.73	–	> 10	> 10	8.9

Second part, led by results:

EC50 [1] [µM]	EC50 [2] [µM]	EC50 [4] [µM]	EC50 [5] [µM]	EC50 [11] [µM]	EC50 [13] [µM]	Compound	EC50 [3] [µM]	EC50 [6] [µM]	EC50 [7] [µM]	EC50 [8] [µM]	EC50 [9] [µM]	EC50 [10] [µM]	EC50 [12] [µM]
–	> 10	> 10	–	> 10	–	CN[C@@H](C)C(=O)N[C@H](C(=O)N1CCC[C@H]1c1nc(C(=O)c2ccc(F)cc2)cs1)C1CCCCC1 [LCL-161]	> 10	–	5	–	> 10	> 10	8.5
–	–	1.9	1.9	–	2	CCN1CCN(Cc2ccc(Nc3ncc(F)c(-c4cc(F)c5nc(C)n(C(C)C)c5c4)n3)nc2)CC1 [LY2835219]	> 10	–	4	> 10	> 10	> 10	–
